Structures are written as SMILES. pIC50: −log10 of the molar value.

As a reminder, the pIC50 is the negative decadic logarithm of the IC50, by convention in mol/L.

This assay can be described thus: Inhibition of Escherichia coli PDHc-E1 expressed in Escherichia coli TB1 using sodium pyruvate as substrate after 3 mins by 2,6-DCIP reduction assay.
`Cc1ncc(Cn2cc(COc3ccc([N+](=O)[O-])cc3Cl)nn2)c(N)n1` gave a negative-log IC50 (pIC50) of 5.16. In the case of `Cc1ncc(Cn2cc(COc3ccc([N+](=O)[O-])cc3)nn2)c(N)n1` it was 5.06. Take `Cc1ncc(Cn2cc(COc3ccc(C(=O)O)cc3)nn2)c(N)n1`: the pIC50 is 4.82. With `Cc1ncc(Cn2cc(COc3ccccc3)nn2)c(N)n1`, the pIC50 is 4.26.
